Laboratory results reported in patent US20190350907A1, “METHODS AND PHARMACEUTICAL COMPOSITIONS FOR REDUCING CD95- MEDIATED CELL MOTILITY” (INSERM (INSTITUT NATIONAL DE LA SANTÉ ET DE LA RECHERCHE …, priority 2017, published 2019).
Values joined by “and” are separate entries in the source; they are usually repeats but may differ in a detail not shown here. Equal entries are not always repeated. Where no end group is shown, it is not given here.

Experiments:
[1] = system: CD95-mediated Ca2+ signaling pathway in Tfh cells; experiment: CD95-mediated Ca2+ response in Tfh cells; format: cell-based, human; conditions: Example 2; signal described for Th17 and circulating Tfh cells
[2] = target: T1, CD95/PLCγ1 interaction (Homo sapiens, UniProt P19174); experiment: Renilla luciferase protein-fragment complementation assay (PCA), CD95-CID/PLCγ1-SH3; format: cell-based; conditions: PCA in HEK cells
T1 construct: The PLCγ1-SH3 domain (aa 790-851) (C); expressed in transfected cells; host or cells: HEK293T
T1 sequence (P19174 790-851): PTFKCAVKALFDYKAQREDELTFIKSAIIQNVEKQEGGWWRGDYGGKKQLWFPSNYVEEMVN
Procedure: FIG. 1. […] A. Schematic representation of the protein-fragment complementation assay used with CD95-CID or -DD fused to F2 and PLCγ1-SH3 or FADD-DD fused to F1 to identify inhibitors from the Prestwick library. The Renilla luciferase enzyme was divided into amino-terminal and carboxy-terminal fragments (yellow domains) and fused to the indicated domains. B. Compounds from the Prestwick library were tested against CD95/PLCγ1 or CD95/FADD PCA. […] Inhibition of CD95/FADD interaction is also assessed.
Light emission indicates refolding of the luciferase and reconstitution of enzyme activity through protein/protein interactions. […] Data represent means±SD of three independent experiments. […] Then, the indicated peptides fused with or without the cell-penetrating domain TAT were incubated at the indicated concentrations for 4 hrs and luminescence was assessed. Data represent means±SD of three independent experiments. […].
HEK293T cells were electroporated with 5 μg of DNA using BTM-830 electroporation generator (BTX Instrument Division, Harvard Apparatus) with 10 μg of DNA. Transfected cells were cultured for 24 hrs prior to protein complementation assay analyses as previously described (17). Briefly, transfected cells (10^6) were washed, resuspended in 100 μl PBS and deposited in OptiPlate-96 (PerkinElmer, Waltham, Mass., USA). Coelenterazine-h (5 μM, Sigma) was injected to each well and renilla luciferase activity was monitored for the first 10 seconds using Infinite200Pro (Tecan, Männedorf, Switzerland).
A peptide consisting of the cell-penetrating domain of TAT fused to CID (TAT-CID) binds the SH3 domain of PLCγ1 and thereby, prevents PLCγ1/CD95 interaction and the subsequent induction of the Ca^2+ response (16). […] Briefly, the Renilla luciferase enzyme was divided into two fragments (F1 and F2 fragments). […] Interaction of CD95 with PLCγ1 or FADD allows the reconstitution of RLuc and subsequent light emission (FIG. 1A). The chemical Prestwick library was screened against these PCAs (FIG. 1B). […] These molecules are designated CID inhibitors or CIDINH.

[3] = system: Tfh-dependent B cell activation; experiment: Tfh-dependent B-cell maturation co-culture (memory B cells with SEB-stimulated Tfh cells, s-CD95L); format: cell-based; conditions: preincubation of Tfh cells
[4] = system: lupus-prone mice (MRL Lpr/+); conditions: repeated injections; cited from earlier work
[5] = target: T2, CD95/FADD interaction (Homo sapiens, UniProt P25445+Q13158); experiment: Renilla luciferase protein-fragment complementation assay (PCA), CD95-DD/FADD-DD; format: cell-based; conditions: result in words; selectivity control
T2 construct: DD-CD95 (aa 210-303) fused to F2; the death domain of FADD (aa 80-210) (D) fused to F1; expressed in transfected cells; host or cells: HEK293T
T2 sequence (P25445 226-319): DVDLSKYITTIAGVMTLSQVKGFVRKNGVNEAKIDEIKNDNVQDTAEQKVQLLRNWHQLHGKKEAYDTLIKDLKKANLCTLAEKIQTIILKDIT
T2 sequence (Q13158 80-208): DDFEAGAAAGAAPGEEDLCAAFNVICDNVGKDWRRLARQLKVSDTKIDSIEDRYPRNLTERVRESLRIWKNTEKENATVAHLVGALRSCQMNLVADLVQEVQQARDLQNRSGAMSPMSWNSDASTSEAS
Source text: FIG. 1. Identification of chemical leads from the Prestwick library inhibiting the CD95/PLCγ1 interaction. A. Schematic representation of the protein-fragment complementation assay used with CD95-CID or -DD fused to F2 and PLCγ1-SH3 or FADD-DD fused to F1 to identify inhibitors from the Prestwick library. The Renilla luciferase enzyme was divided into amino-terminal and carboxy-terminal fragments (yellow domains) and fused to the indicated domains. B. Compounds from the Prestwick library were tested against CD95/PLCγ1 or CD95/FADD PCA. This library allowed us to select 34 hits based on their ability to inhibit CD95/PLCγ1 interaction (≥70% of signal inhibition) without altering CD95/FADD binding (ratio (CD95/PLCγ1 inhibition/CD95/FADD inhibition) ≥2). […] Inhibition of CD95/FADD interaction is also assessed.
A. CID-CD95 (aa 175-210) or DD-CD95 (aa 210-303) fused to F2 were co-transfected into HEK cells with the indicated domains of PLCγ1 (Ca^2+ response) or FADD (apoptosis) fused to F1. […] The inhibition of light emission for the indicated PPIs was assessed in cells incubated for the indicated times in the presence of TAT-CID (25 μM). […] Then, the indicated peptides fused with or without the cell-penetrating domain TAT were incubated at the indicated concentrations for 4 hrs and luminescence was assessed. […]

## TAT-CID: peptide consisting of the CID (CD95 amino acids 175 to 210) conjugated to the cell-penetrating domain of TAT (KRKEVQKTCRKHRKENQGSHESPTLNPETVAINLSD; not fully specified (N-terminus); also: conjugated to TAT cell-penetrating domain, site not given here)
[1]
  effect on sCD95L-induced Ca2+ response: abrogated
[2]; peptides incubated for 4 hours, read-out: IC50, disruption of CD95/PLCγ1 interaction by peptides
  IC50: 10.8 µM and 11.5 µM
[2]; TAT-CID 25 μM
  time course of inhibition of CD95/PLCγ1: increased in a time dependent manner
[3]
  effect on Tfh-dependent B cell activation: blocks
[4]
  effect on clinical symptoms: alleviate clinical symptoms
  effect on endothelial transmigration of Th17 cells in vivo: block
[5]
  effect on CD95/FADD interaction: failed to alter
